Measured values: a melting point compilation (Tetko et al.; mined from patent text by program, amines drawn as free bases though some values may be those of a salt)

Compound | melting point
CCCC1=C(C(=O)OCC)C(c2ccccc2OC(C)C)c2c[nH]nc2N1 (stereo not given) | 210 °C
COc1cc(C)c(Cl)c2c(=O)oc3c(c12)C(=O)c1cccc(O)c1C3=O | 294 to 296 °C
CCS(=O)(=O)CCC(=O)NNC(=O)N1Cc2ccccc2Oc2ccc([N+](=O)[O-])cc21 | 198 to 200 °C
COc1cc(C=CC(=O)CCCCO)cc(OC)c1 | 78 to 80 °C
CN(C)CSc1ccc(-n2cnnn2)cc1 | 56 to 57.5 °C
CC(C)OC(=O)C(C(=O)Nc1ccc(C(F)(F)F)cc1)=C1SCS1 | 151 to 152 °C
COC[C@H](Cc1ccccc1)NC(=O)[C@@H](CC(=O)OCc1ccccc1)NC(=O)OC(C)(C)C | 60 to 63 °C
CC(=O)O[C@H](CC(=O)c1ccccc1)C(=O)O | 118 to 121 °C
O=c1cc(O)c2c([nH]1)CCCCC2 | > 270 °C
CCOCN(C(=O)CCl)c1c(C)cccc1[N+](=O)[O-] | 96 to 98 °C
CC(=O)c1cc2c(c(C=O)c1O)CCCC2 | 77.5 to 78.5 °C
CN1CC(=O)Nc2ccccc21 | 132 °C
NC(=O)C1CCN(C(=O)CNC(=O)OCc2ccccc2)CC1 | 146 to 149 °C
CCOC(=O)c1nc2n(n1)-c1sc(C)c(C)c1C(c1ccccc1)=NC2 | 173 to 174 °C
CCCCC(CNC(=O)Nc1c(C(C)C)cccc1C(C)C)c1cccc(C)c1 (stereo not given) | 173 to 174 °C
C=CCN(CC=C)c1nc(NC(=O)C=C(C)C)n2oc(=O)nc2n1 | 165 to 166 °C
CCCCCCCCCCC1(CCCCCCCCCC)c2cc(Br)ccc2-c2ccc(C=O)cc21 | 45 to 47 °C
CN1CCN(Cc2cc(N)cc(C(F)(F)F)c2)CC1 | 98 to 99 °C
COc1ccc(CCNC(=O)C(N)=O)cc1OCCCCO | 47 to 49 °C
CCCc1nc2c(N)nc3cc(Br)ccc3c2n1CCCONC(=O)C(C)C | 176 to 178 °C
CC12CCC(=O)C=C1CCC1C2CCC2(C)C(C(=O)NC3C4CC5CC(C4)CC3C5)CCC12 (stereo not given) | 244 to 246 °C
C[C@@H]1C[C@@H](O)CC(C)(C)C1=O | 49 to 50 °C
C#CCOc1cc(C)nc(-c2cccc(CCC)n2)n1 | 92.5 °C
CCN1c2ncccc2C(SC)=Nc2c(C)cc(C)nc21 | 130 to 132 °C

Compound | melting point
CC(=O)OCC(=O)C1CCC2C3CCC4CC(O)C(N5CCOC(C)(C)C5)CC4(C)C3CCC12C (stereo not given) | 174 to 175 °C
COc1ccc2c(c1)CC(N(C)CCCNC(=O)Cc1cc(OC)c(OC)cc1[N+](=O)[O-])CC2 (stereo not given) | 116 to 118 °C
CN(C)Cc1c[nH]c2ccc(OCc3ccccc3)c(Cl)c12 | 137 to 139 °C
O=[N+]([O-])C=C1CCCN1C1=CC(CF)(CF)Oc2ccc(C(F)(F)C(F)(F)F)cc21 | 195 to 197 °C
COc1cc(F)c(-c2cncc(OC3SCC(OC(C)=O)C(OC(C)=O)C3OC(C)=O)c2)c(F)c1 (stereo not given) | 62 °C
CC(=O)NC1(CCc2ccccc2)CCOC(=O)CC1 (stereo not given) | 165 to 167 °C
CCOP(=O)(OCC)C(Nc1ccccn1)P(=O)(OCC)OCC | 63 to 66 °C
Cc1cnc2[nH]cc(/C=C3\N=C(NCC4CC4)NC3=O)c2c1 | 319 to 320 °C
COCCOc1c(S(C)(=O)=O)ccc(Cl)c1C | 83 to 85 °C
COCO[C@H]1C[C@H]2OC(C)(C)OC[C@]23C2C(CC[C@]3(O)C1)[C@@]1(OCOC)CC[C@H](CO)[C@@]1(C)C[C@H]2OCOC (stereo not given in full) | 154 to 158 °C
CS(=O)(=O)N1CCC(COCc2cc(C(F)(F)F)cc(C(F)(F)F)c2)(c2ccccc2)CC1 | 102 to 104 °C
Cc1cc(C(F)(F)F)cnc1O | 141 to 143 °C
CC#CCOc1ccc(S(=O)(=O)C2(C(=O)O)CCN(C(C)C)CC2)cc1 | 233 °C
CCC(O)(CC)Cc1ccc(N)cc1 | 85 to 86 °C
Cc1sc(S(=O)(=O)NC(C)(C)CO)cc1[N+](=O)[O-] | 118 °C
CC(=O)OCC1SC(Oc2cc(C)cc(O)c2C(C)=O)C(OC(C)=O)C(OC(C)=O)C1OC(C)=O (stereo not given) | 162 to 164 °C
CC(=O)Nc1cccc(C(C)(C)O)c1CO | 138 °C
COC(=O)c1sc(-n2cccn2)cc1O | 162 to 164 °C
Cc1cc2ccccc2nc1NN | 128 °C
CCCc1cc(Cl)c(OC(=S)N(C)C)c(C(C)=O)c1O | 114 to 116 °C
O=C1SC(Cc2ccc(OCCON=Cc3ccc(-c4ccccc4)cc3)cc2)C(=O)N1C(c1ccccc1)(c1ccccc1)c1ccccc1 (stereo not given) | 157 to 159 °C
COc1c(Cl)cccc1N1CN(C)C(=S)n2ncnc21 | 208 to 210 °C
CCNC(CO)Cc1cn(Cc2ccccc2)cn1 (stereo not given) | 109 to 110 °C
O=[N+]([O-])c1cc(Cl)cc(Cc2cc(Cl)cc([N+](=O)[O-])c2O)c1O | 163 to 170 °C

Now from value to compound:

melting point | Compound
> 350 °C | O=c1[nH]c(Nc2ccccc2)nc2c1ncn2CCCCO
208 to 210 °C | Cc1cccc(NC(=O)N(C)Cc2cccc3c2CN(C2CCC(=O)NC2=O)C3=O)c1 (stereo not given)
120 to 122 °C | CC1(C(=O)Nc2ccc(OCc3ccccc3)c(C(F)(F)F)c2)CC1
115 to 116 °C | FC(F)C(F)(F)Oc1cccc(Nc2nccc(-c3cccs3)n2)c1
178 to 180 °C | NC(=O)Cc1cccc(C(=O)c2ccccc2)c1N
80 to 81 °C | CC(C)[C@H](OCc1c(F)cccc1F)[C@H]1[C@H]([N+](=O)[O-])[C@H](c2ccccc2)N[C@@H]1C(=O)NCC(=O)O
123 to 126 °C | Cc1ccccc1NC(=O)c1ccc(-n2nc(C3CC3)cc2C2CC2)nc1
128 to 129 °C | O=S(=O)(Nc1ccc2c(OCc3csc(-c4ccccc4Cl)n3)cccc2c1)C(F)(F)F
204 to 205 °C | COc1cc(COc2nn(-c3ccccc3)cc2/C=C/C(=O)O)ccc1OCc1nc(-c2ccco2)oc1C
139 °C | COc1cc(N(C)c2nccc(-c3ccncc3)n2)cc(OC)c1OC
202 to 203 °C | Nc1ccc2c(c1)ncn2-c1ccccc1O
73 °C | CCC[C@H]1CC[C@H](CCc2ccc(-c3ccc(OCC)c(F)c3F)cc2)CC1
136 to 137 °C | COC(=O)Cc1coc2cc(OCc3cc(-c4ccc(Cl)cc4)on3)ccc12
89 to 91 °C | CC(C)(C)OC(=O)c1ccc(N2CCC(N)CC2)cc1
154 °C | OP(O)C(NC(c1ccccc1)c1ccccc1)c1c[nH]c2ccccc12 (stereo not given)
180 to 182 °C | COc1ccc(SC(C(=O)O)c2ccccc2)c(Cl)c1Cl (stereo not given)
222 to 224 °C | O=C(Nc1ccc(-n2nc(C(F)(F)F)cc2C(F)(F)F)cc1)c1ccc2c(c1)OCO2
93 to 94 °C | COc1cc(Cc2cnc(CCCOc3cccc(CN4CCCCC4)c3)[nH]c2=O)ccn1
127 to 129 °C | CN1CC=C(c2c[nH]c3ccc(NC(=N)c4cccs4)cc23)C(F)C1 (stereo not given)
109 to 110 °C | CCOC(=O)c1cnc2cc3c(cc2c1Cl)OCO3
90 to 92 °C | CCC(CC)C(NS(=O)(=O)c1ccc(Cl)s1)c1ccnn1Cc1ccc(O)cc1 (stereo not given)
150 °C | NC1CCN(c2ncc3ncnc(Nc4ccc(OCc5ccccc5)cc4)c3n2)CC1
81 to 82 °C | CCCCCc1ccc(-c2ccc(C(C)=O)cc2)cc1
80 to 83 °C | COC(=O)c1ccc2c(CCC=O)nn(C)c2c1
170 °C | O=C(Oc1ccc(Cl)cc1)c1c2ccccc2nc2ccccc12
218 to 219 °C | Nc1cc(=O)n(-c2ccccc2)[nH]1

melting point | Compound
206 °C | COc1ccc(C(C(=O)OC(C)(C)C)N(C(=O)CNC(=O)Nc2cccc(C)c2)c2ccccc2)cc1 (racemic)
245 °C | O=C(NCc1ccc2c(c1)OCO2)c1ccc2[nH]c(=O)n(Cc3ccc4c(c3)OCO4)c(=O)c2c1
152 °C | O=C1c2nccc(Cl)c2C(=O)c2c(-c3ccccc3NC(=O)C(F)(F)F)ccnc21
167 to 168 °C | Cc1oc(CCOc2ccc(CC3SC(=N)NC3=O)cc2)nc1CC(C)C (stereo not given)
> 280 °C | CCOC(=O)c1ccc(-c2[nH]nc3c2C(=O)c2c(NC(N)=O)cccc2-3)s1
138 °C | COC(=O)C(c1ccccc1)N1CCC(c2ccc(NC(=O)c3ccccc3-c3ccc(C(F)(F)F)cc3)cc2)CC1 (stereo not given)
167 °C | CSc1nc2cncnc2n1Cc1ccc(F)cc1
145 °C | CCCCc1ncc(/C=C(\Cc2cccs2)C(=O)O)n1Cc1cc(Cl)c(C(=O)O)cc1Cl
260 to 262 °C | CCCn1c(=O)c2cc(C(=O)O)cn2c2ccccc21
174 °C | O=c1oc2ccccc2c(O)c1[N+](=O)[O-]
54 to 55 °C | C(=C(c1ccccc1)c1ccccc1)C1CCN(CCCCCCCCc2cccnc2)CC1
> 300 °C | NC(=O)c1ccc(-c2nccc3[nH]c(=O)ccc23)cc1
163 to 166 °C | O=C1CCC(N2C(=O)c3ccccc3C2=O)c2ccsc21 (stereo not given)
164 to 165 °C | Clc1ccc(N=Cc2ccc(-c3noc4ccccc34)cc2)cc1
83 to 84 °C | CCOC(=O)COc1ccccc1C(O)(CC)c1cccc(Cl)c1 (stereo not given)
115 °C | COC(=O)c1ccc(F)c2c1CC(N(CCCCc1c[nH]c3ccc(F)cc13)C1CCC1)CO2 (stereo not given)
162 to 164 °C | O=C(CNC(=O)OCc1ccc([N+](=O)[O-])cc1)Nc1ccc(C(=O)OCI)cc1
130 °C | CCOC(=O)C1=C(C)NC(N)=C(C(=O)OCC)C1c1ccccc1C (stereo not given)
184 to 186 °C | Nc1ccccc1Nc1ccc(Nc2nccs2)cc1
112 to 117 °C | Cc1cccc2c1nc(-c1c(F)cccc1F)n2Cc1ccccc1
133 to 134 °C | COc1ccc(C2(c3ccc(OC)c(OC)c3)CCC(=O)O2)cc1OC
278 to 280 °C | O=C1CCC(N2Cc3cc(CNC(=O)c4ccc(Cl)cc4)ccc3C2=O)C(=O)N1 (stereo not given)
225 to 228 °C | O=S(=O)(Nc1ccc(Cl)cc1-c1nc2ccccc2[nH]1)c1ccc(Cl)cc1
205 to 206 °C | CCOC(=O)N1CCC(n2cnc(-c3ccc(F)cc3)c2-c2ccnc(NC)n2)CC1
174 to 176 °C | CC(C)CCOCc1cc(N2N=C(C(N)=O)NC2c2ccccc2)ccc1Cl (stereo not given)
73 to 74 °C | CCOP(=O)(Cc1ccc(N)c2ccccc12)OCC
